Values of other authors, collected in US10130578B2, “Topical delivery of skin compositions having low pH” (Johnson & Johnson Consumer Inc., priority 2015, dated 2018).

In the case of Hyaluronic acid, the pKa is given as 2.9.
